Experimental data as given in patent publication US4772633A, “6-pyridyl- and 6-phenyl-3-phenyl-1-hexenes and -1-hexynes, composition containing them, and insecticidal and acaricidal method of using them” (Sumitomo Chemical Company, Limited, priority 1986, dated 1988).
Read-outs that look alike come from different tables or passages of the source.

Experiments:
Assay type in all cases: in vivo
[1] = system: common mosquito (Culex pipiens pallens); test: Test Example 1: mortality of larvae and inhibition of emergence of common mosquito; conditions: for Inhibitory ratio of emergence: 3.5 ppm, counted when all mosquitoes of no treatment group had emerged; for mortality at 3.5 ppm: Culex pipiens, 24 h, last instar larvae, after one day
Experimental: The emulsifiable concentrates of the following present compounds obtained according to Formulation example 2 were each diluted with water so as to obtain respective aqueous solutions containing 3.5 ppm of said compounds, respectively. One hundred ml of thus diluted aqueous solutions were poured into respective polyethylene cups of 180 ml volume, and 20 of the last instar larvae of common mosquito (Culex pipiens pallens) were liberated thereto. After one day, the dead or alive of the larvae were examined. Thereafter, the feed was added to respective cups and the number of emerged mosquitoes of the respective cups was counted when all the mosquitoes of no treatment group had […] to calculate the inhibitory ratios of the emergence. The mortality and the inhibitory ratio of the emergence are shown according to the following three criteria: mortality: A; 90% or more, […] inhibitory: A; 90% or more, ratio of emergence B; less than 90% to 80% C; less than 80%.

[2] = system: carmine spider mite (Tetranychus cinnabarinus); test: Test Example 8: degree of damage of kidney bean plant by carmine spider mite; design: key: -: No damage is observed.; +: Slight damage is observed.; ++: The same damage as in the untreated plot is observed; conditions: 500 ppm, sprayed 15 ml/pot plus 2 ml to soil; after 8 days; 25° C.
Experimental: The female adults of carmine spider mite (Tetranychus cinnabarinus) were put at a rate of 10 adults/leaf on the leaves of potted kidney bean (at the primordial leaf stage) which had elapsed 7 days after sowing, and placed in a constant-temperature room kept at 25° C. After 6 days, the 200-fold aqueous dilute solutions (corresponding to 500 ppm), prepared from the emulsifiable concentrates of the following present compounds and control compounds prepared according to Formulation example 2, were each sprayed at a rate of 15 ml/pot on a turn table. At the same time, the soil in the pot was treated with 2 ml of each aqueous solution. After 8 days, the degree of damage of the plant by the mite was examined.
-: No damage is observed.
+: Slight damage is observed.
++: The same damage as in the untreated plot is observed.

[3] = system: brown rice planthoppers (Nilaparavata lugens); test: Test Example 7: mortality and residual effect on brown rice planthoppers on sprayed potted rice plants; conditions: Oryza sativa, 24 h
Experimental: The emulsifiable concentrates of the following compounds and control compounds obtained according to Formulation example 2 were each diluted with water one thousand times (corresponding to 100 ppm) and each of thus prepared solutions was sprayed at the rate of 20 ml/2 pots to the rice plant seedlings planted in Wagner pots having a surface area of one ten thousandth are. After air-drying, the threated plants were covered with the iron wire cages, and about 15 adults of brown rice planthoppers (Nilaparavata lugens) were liberated thereto. Further, about 15 adults thereof were also liberated thereto 4 days after the application to examine the residual effects. Twenty four hours after each liberation, the dead and alive adults were examined to calculate the mortality.

[4] = read-out: Mortality (%) liberated 4 days after application
[5] = read-out: Mortality (%) liberated just after air-drying

| SMILES | Inhibitory ratio of emergence [1] | mortality at 3.5 ppm [1] [%] | Degree of damage [2] | mortality at 100 ppm [3, 4] [%] | mortality at 100 ppm [3, 5] [%] |
| --- | --- | --- | --- | --- | --- |
| C#CC(C)(CCCc1cccc(Oc2ccccc2)c1)c1ccc(Cl)cc1 (centres unmarked) [(25), 3-(4-Chlorophenyl)-3-methyl-6-(3-phenoxyphenyl)-1-hexyne] | A (90% or more) | > 90 | - |  |  |
| Cc1cc(Cl)ccc1N=CN(C)C [(E), Chlordimeform, reference compound] |  |  | - ~ + |  |  |
| C#CC(C)(CCCc1ccc(F)c(Oc2ccccc2)n1)c1ccc(OCC)cc1 (centres unmarked) [(20)] | A (90% or more) | > 90 | - ~ + |  |  |
| C#CC(C)(CCCc1cccc(Oc2ccccc2)c1)c1ccc(OCC)c(Cl)c1 (centres unmarked) [(16), 3-(3-Chloro-4-ethoxyphenyl)-3-methyl-6-(3-phenoxyphenyl)-1-hexyne] | A (90% or more) | 10 to 90 | - |  |  |
| C=CC(C)(CCCc1cccc(Oc2ccccc2)c1)c1ccc(OCC)cc1 (centres unmarked) [(1), 3-(4-ethoxyphenyl)-3-methyl-6-(3-phenoxyphenyl)-1-hexene] | A (90% or more) | > 90 | - ~ + | 100 | 100 |
| C=CC(C)(CCCc1ccc(F)c(Oc2ccccc2)c1)c1ccc(OCC)cc1 (centres unmarked) [(2), 3-(4-Ethoxyphenyl)-3-methyl-6-(3-phenoxy-4-fluorophenyl)-1-hexene] | A (90% or more) | > 90 | - | 100 | 100 |
| C#CC(C)(CCCc1ccc(F)c(Oc2ccccc2)c1)c1ccc(Cl)cc1 (centres unmarked) [(10), 3-(4-Chlorophenyl)-3-methyl-6-(3-phenoxy-4-fluorophenyl)-1-hexyne] | A (90% or more) | > 90 | - |  |  |
| CCOc1ccc(C(C)(C)COCc2cccc(Oc3ccccc3)c2)cc1 [(B), reference compound] |  |  | + ~ ++ | 65 | 100 |
| C#CC(C)(CCCc1ccc(F)c(Oc2ccccc2)c1)c1ccc(OC(F)F)cc1 (centres unmarked) [(6), 3-(4-Difluoromethoxyphenyl)-3-methyl-6-(3-phenoxy-4-fluorophenyl)-1-hexyne] | A (90% or more) | > 90 | - |  |  |
| C#CC(C)(CCCc1cccc(Oc2ccccc2)n1)c1ccc(OCC)cc1 (centres unmarked) [(18), 3-(4-ethoxyphenyl)-3-methyl-6-(6-phenoxypyridin-2-yl)-1-hexyne] | A (90% or more) | > 90 | - ~ + |  |  |
| C#CC(C)(CCCc1ccc(F)c(Oc2ccccc2)c1)c1ccc(OCC=C)cc1 (centres unmarked) [(8), 3-(4-Allyloxyphenyl)-3-methyl-6-(3-phenoxy-4-fluorophenyl)-1-hexyne] | A (90% or more) | > 90 | - |  |  |
| C#CC(C)(CCCc1ccc(F)c(Oc2ccccc2)c1)c1ccc(OC(F)F)c(Cl)c1 (centres unmarked) [(27)] | A (90% or more) | 10 to 90 |  |  |  |
| C#CC(C)(CCCc1cccc(Oc2ccccc2)c1)c1ccc(OC(F)F)cc1 (centres unmarked) [(17), 3-(4-difluoromethoxyphenyl)-3-methyl-6-(3-phenoxyphenyl)-1-hexyne] | A (90% or more) | > 90 | - |  |  |
| C#CC(CCCC)(CCCc1ccc(F)c(Oc2ccccc2)c1)c1ccc(OCC)cc1 (centres unmarked) [(42), 3-(4-Ethoxyphenyl)-3-n-butyl-6-(3-phenoxy-4-fluorophenyl)-1-hexyne] | A (90% or more) | 10 to 90 |  |  |  |
| C#CC(C)(CCCc1cccc(Oc2ccccc2)c1)c1ccc(OCC=C)cc1 (centres unmarked) [(7), 3-(4-allyloxyphenyl)-3-methyl-6-(3-phenoxyphenyl)-1-hexyne] | A (90% or more) | 10 to 90 | - | 93 | 100 |
| C#CC(CC)(CCCc1cccc(Oc2ccccc2)c1)c1ccc(OCC)cc1 (centres unmarked) [(32), 3-(4-Ethoxyphenyl)-3-ethyl-6-(3-phenoxyphenyl)-1-hexyne] | A (90% or more) | > 90 |  |  |  |
| C#CC(C)(CCCc1ccc(F)c(Oc2ccccc2)c1)c1ccc(F)cc1 (centres unmarked) [(9), 3-(4-Fluorophenyl)-3-methyl-6-(3-phenoxy-4-fluorophenyl)-1-hexyne] | A (90% or more) | > 90 |  |  |  |
| C#CC(C)(CCCc1cccc(Oc2ccccc2)c1)c1ccc(F)cc1 (centres unmarked) [(35), 3-(4-Fluorophenyl)-3-methyl-6-(3-phenoxyphenyl)-1-hexyne] | A (90% or more) | > 90 |  |  |  |
| C#CC(C)(CCCc1cccc(Oc2ccccc2)c1)c1ccc(CC)cc1 (centres unmarked) [(23), 3-(4-Ethylphenyl)-3-methyl-6-(3-phenoxyphenyl)-1-hexyne] | A (90% or more) | > 90 |  |  |  |
| C#CC(C)(CCCc1ccc(F)c(Oc2ccc(C)cc2)c1)c1ccc(OCC)cc1 (centres unmarked) [(33), 3-(4-Ethoxyphenyl)-3-methyl-6-{3-(4-methylphenoxy)-4-fluorophenyl}-1-hexyne] | A (90% or more) | > 90 |  |  |  |
| C#CC(C)(CCCc1cccc(Sc2ccccc2)c1)c1ccc(OCC)cc1 (centres unmarked) [(22), 3-(4-Ethoxyphenyl)-3-methyl-6-(3-phenylthiophenyl)-1-hexyne] | A (90% or more) | 10 to 90 |  |  |  |
| C#CC(C)(CCCc1ccc(F)c(Oc2ccccc2)c1)c1ccc(OCC)c(Cl)c1 (centres unmarked) [(11), 3-(3-Chloro-4-ethoxyphenyl)-3-methyl-6-(3-phenoxy-4-fluorophenyl)-1-hexyne] | A (90% or more) | > 90 | - |  |  |
| C#CC(C)(CCCc1ccc(F)c(Oc2ccccc2)c1)c1ccc2c(c1)OCO2 (centres unmarked) [(12), 3-(3,4-Methylenedioxyphenyl)-3-methyl-6-(3-phenoxy-4-fluorophenyl)-1-hexyne] | A (90% or more) | > 90 |  |  |  |
| C#CC(CCCc1ccc(F)c(Oc2ccccc2)c1)c1ccc(OCC)cc1 (centres unmarked) [(43), 3-(4-Ethoxyphenyl)-6-(3-phenoxy-4-fluorophenyl)-1-hexyne] | A (90% or more) | > 90 | - ~ + |  |  |
| C#CC(C)(CCCc1ccc(F)c(Oc2ccccc2)c1)c1ccc(OCC=C)c(Cl)c1 (centres unmarked) [(40)] | A (90% or more) | 10 to 90 |  |  |  |
| C#CC(C)(CCCc1ccc(F)c(Oc2ccccc2)c1)c1ccc(CC)cc1 (centres unmarked) [(39), 3-(4-Ethylphenyl)-3-methyl-6-(3-phenoxy-4-fluorophenyl)-1-hexyne] | A (90% or more) | > 90 | - ~ + |  |  |
| CCC(C)c1ccccc1OC(=O)NC (centres unmarked) [(C), BPMC, reference compound] |  |  |  | 6 | 100 |
